Test results from the supplement of paper PMC6045584.
± gives the standard deviation of the averaged measurements.

Assays:
[1] = compound: Cn1cc(C2=Nc3cc(NC(=O)C(N)C4CCCCC4)cc4c3C2=CNNC4=O)cn1; assay: surviving fraction relative to DMSO-only wells; higher = less growth inhibition; details: exposure time: 5 days
Method in brief: (§1)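 Viability values are CellTiter-Glo luminescence readings, given as surviving fraction against the median of DMSO-only wells. The readings were taken after 10 minutes at room temperature, following five days of continuous exposure to inhibitors at 0.5, 1, 5, 10, 50, 100, 500 and 1000 nM that began 24 hours after log-phase tumour cell lines were seeded at 250–500 cells per well in 384-well plates. Every line was screened three times and kept only if replicate Pearson r >0.7 and median Z' >0.3.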

BI-2536 = compound: CC[C@@H]1C(=O)N(C)c2cnc(Nc3ccc(C(=O)NC4CCN(C)CC4)cc3OC)nc2N1C1CCCC1 [BI-2536]; assay: as above; details: exposure time: 5 days
Method in brief: as §1

| Test System | surviving fraction ([1]; 0.5 nM) | surviving fraction ([1]; 1 nM) | surviving fraction ([1]; 5 nM) | surviving fraction ([1]; 10 nM) | surviving fraction ([1]; 50 nM) | surviving fraction ([1]; 100 nM) | surviving fraction ([1]; 500 nM) | surviving fraction ([1]; 1000 nM) | surviving fraction (BI-2536; 0.5 nM) | surviving fraction (BI-2536; 1 nM) | surviving fraction (BI-2536; 5 nM) | surviving fraction (BI-2536; 10 nM) | surviving fraction (BI-2536; 50 nM) | surviving fraction (BI-2536; 100 nM) | surviving fraction (BI-2536; 500 nM) | surviving fraction (BI-2536; 1000 nM) |
| --- | --- | --- | --- | --- | --- | --- | --- | --- | --- | --- | --- | --- | --- | --- | --- | --- |
| SUM44 BREAST | 0.896 ± 0.016 | 0.936 ± 0.059 | 0.905 ± 0.072 | 0.594 ± 0.03 | 0.349 ± 0.028 | 0.239 ± 0.0068 | 0.232 ± 0.017 | 0.301 ± 0.015 | 0.797 ± 0.039 | 0.378 ± 0.025 | 0.163 ± 0.0069 | 0.166 ± 0.022 | 0.158 ± 0.0027 | 0.154 ± 0.013 | 0.162 ± 0.013 | 0.1503 ± 0.00058 |
| HS578T BREAST | 0.986 ± 0.027 | 1.06 ± 0.057 | 0.946 ± 0.14 | 0.927 ± 0.037 | 0.788 ± 0.051 | 0.485 ± 0.049 | 0.162 ± 0.0082 | 0.174 ± 0.021 | 0.828 ± 0.093 | 0.73 ± 0.075 | 0.253 ± 0.013 | 0.196 ± 0.02 | 0.131 ± 0.015 | 0.132 ± 0.025 | 0.144 ± 0.0045 | 0.135 ± 0.012 |
| HU09 BONE | 0.977 ± 0.039 | 1.02 ± 0.062 | 1.02 ± 0.058 | 0.975 ± 0.015 | 0.6343 ± 0.0057 | 0.372 ± 0.033 | 0.073 ± 0.0061 | 0.0617 ± 0.011 | 1.03 ± 0.049 | 0.939 ± 0.14 | 0.066 ± 0.0044 | 0.0487 ± 0.0047 | 0.086 ± 0.033 | 0.076 ± 0.017 | 0.0617 ± 0.0081 | 0.0403 ± 0.0032 |
| SCC36 HEADNECK | 0.976 ± 0.11 | 0.979 ± 0.038 | 1.07 ± 0.062 | 1.05 ± 0.12 | 0.753 ± 0.026 | 0.678 ± 0.045 | 0.282 ± 0.037 | 0.19 ± 0.025 | 0.945 ± 0.088 | 0.897 ± 0.19 | 0.189 ± 0.011 | 0.191 ± 0.01 | 0.291 ± 0.04 | 0.24 ± 0.018 | 0.114 ± 0.0061 | 0.07 ± 0.0053 |
| ZR751 BREAST | 1.04 ± 0.079 | 1.03 ± 0.19 | 0.941 ± 0.13 | 0.908 ± 0.11 | 0.787 ± 0.032 | 0.69 ± 0.053 | 0.625 ± 0.044 | 0.555 ± 0.018 | 1.22 ± 0.024 | 1.27 ± 0.16 | 0.902 ± 0.075 | 0.655 ± 0.0093 | 0.72 ± 0.13 | 0.865 ± 0.094 | 0.645 ± 0.039 | 0.434 ± 0.061 |
| HS57T BREAST | 1.04 ± 0.02 | 1.09 ± 0.027 | 1.11 ± 0.019 | 1.08 ± 0.047 | 0.967 ± 0.07 | 0.72 ± 0.027 | 0.097 ± 0.0087 | 0.0793 ± 0.0038 | 1.1 ± 0.045 | 0.986 ± 0.028 | 0.216 ± 0.016 | 0.114 ± 0.011 | 0.0903 ± 0.0047 | 0.0937 ± 0.0085 | 0.156 ± 0.025 | 0.127 ± 0.009 |
| MG63 BONE | 0.99 ± 0.033 | 1.02 ± 0.021 | 1.03 ± 0.024 | 1.05 ± 0.047 | 1.02 ± 0.058 | 0.822 ± 0.0046 | 0.0643 ± 0.0084 | 0.101 ± 0.011 | 1.057 ± 0.0095 | 1.02 ± 0.053 | 0.884 ± 0.049 | 0.0403 ± 0.0059 | 0.033 ± 0.0017 | 0.023 ± 0.0017 | 0.029 ± 0.001 | 0.03 ± 0.001 |
| VP229 BREAST | 1.04 ± 0.11 | 1.04 ± 0.035 | 1.02 ± 0.059 | 1.11 ± 0.17 | 1.06 ± 0.15 | 1.01 ± 0.064 | 1.13 ± 0.13 | 1.06 ± 0.15 | 0.94 ± 0.022 | 0.729 ± 0.081 | 0.373 ± 0.093 | 0.234 ± 0.019 | 0.254 ± 0.042 | 0.247 ± 0.019 | 0.242 ± 0.025 | 0.19 ± 0.011 |
| SG27 HEADNECK | 1.11 ± 0.17 | 0.979 ± 0.096 | 0.898 ± 0.059 | 1.01 ± 0.022 | 0.904 ± 0.12 | 0.917 ± 0.18 | 0.895 ± 0.042 | 0.839 ± 0.035 | 0.99 ± 0.077 | 1.16 ± 0.1 | 1.04 ± 0.06 | 1.03 ± 0.098 | 1 ± 0.076 | 1 ± 0.1 | 0.391 ± 0.11 | 0.212 ± 0.068 |
| SCC003 HEADNECK | 1.03 ± 0.12 | 1.05 ± 0.21 | 1.1 ± 0.083 | 1.12 ± 0.041 | 1.1 ± 0.14 | 1.1 ± 0.095 | 0.902 ± 0.11 | 0.86 ± 0.12 | 1.06 ± 0.12 | 0.93 ± 0.027 | 0.467 ± 0.059 | 0.412 ± 0.066 | 0.596 ± 0.074 | 0.582 ± 0.033 | 0.381 ± 0.019 | 0.275 ± 0.028 |
| SYO1 SYNOVIAL | 0.977 ± 0.022 | 0.96 ± 0.026 | 0.924 ± 0.04 | 0.897 ± 0.036 | 0.441 ± 0.02 | 0.18 ± 0.051 | 0.0432 ± 0.008 | 0.042 ± 0.0055 | 1.02 ± 0.015 | 0.884 ± 0.045 | 0.108 ± 0.036 | 0.0738 ± 0.015 | 0.0606 ± 0.0062 | 0.0441 ± 0.0071 | 0.0205 ± 0.0005 | 0.0188 ± 0.0014 |
| SUM159 BREAST | 1.13 ± 0.14 | 1.16 ± 0.17 | 1.16 ± 0.19 | 1.12 ± 0.12 | 1.01 ± 0.066 | 1.1 ± 0.12 | 1.04 ± 0.012 | 0.862 ± 0.011 | 0.968 ± 0.2 | 0.967 ± 0.19 | 0.953 ± 0.18 | 0.864 ± 0.17 | 0.194 ± 0.035 | 0.167 ± 0.077 | 0.131 ± 0.057 | 0.134 ± 0.05 |
| HCC1806 BREAST | 1.08 ± 0.062 | 1.16 ± 0.14 | 1.09 ± 0.071 | 1.05 ± 0.092 | 0.528 ± 0.15 | 0.145 ± 0.041 | 0.0373 ± 0.0042 | 0.0433 ± 0.0025 | 0.932 ± 0.046 | 0.749 ± 0.07 | 0.05 ± 0.0082 | 0.0447 ± 0.026 | 0.126 ± 0.025 | 0.136 ± 0.0081 | 0.106 ± 0.0027 | 0.0743 ± 0.015 |
| MDAMB468 BREAST | 0.95 ± 0.0069 | 0.975 ± 0.067 | 0.984 ± 0.049 | 0.978 ± 0.031 | 0.858 ± 0.025 | 0.786 ± 0.11 | 0.151 ± 0.0051 | 0.0767 ± 0.0046 | 0.902 ± 0.037 | 0.462 ± 0.048 | 0.0863 ± 0.0084 | 0.111 ± 0.018 | 0.215 ± 0.018 | 1.05 ± 0.061 | 0.111 ± 0.008 | 0.084 ± 0.0027 |
| VCAP PROSTATE | 1.04 ± 0.058 | 1.13 ± 0.12 | 1.14 ± 0.033 | 1.16 ± 0.081 | 0.969 ± 0.051 | 0.97 ± 0.032 | 0.254 ± 0.059 | 0.113 ± 0.0095 | 0.925 ± 0.13 | 0.243 ± 0.0099 | 0.0727 ± 0.012 | 0.0763 ± 0.015 | 0.154 ± 0.031 | 0.228 ± 0.031 | 0.07 ± 0.0027 | 0.0443 ± 0.013 |
| HELA CERVIX | 1.1 ± 0.028 | 1.1 ± 0.059 | 1.11 ± 0.045 | 1.01 ± 0.013 | 1.11 ± 0.082 | 1.15 ± 0.035 | 1.15 ± 0.038 | 1.09 ± 0.046 | 1.05 ± 0.05 | 1.048 ± 0.0063 | 0.243 ± 0.048 | 0.033 ± 0.00087 | 0.0492 ± 0.0016 | 0.0475 ± 0.0049 | 0.11 ± 0.0041 | 0.133 ± 0.013 |
| A549 LUNG | 1.04 ± 0.034 | 1.08 ± 0.082 | 1.03 ± 0.021 | 1.03 ± 0.018 | 1.08 ± 0.048 | 1.02 ± 0.033 | 1.06 ± 0.029 | 1.01 ± 0.02 | 1.02 ± 0.056 | 1 ± 0.034 | 0.48 ± 0.016 | 0.28 ± 0.0067 | 0.133 ± 0.0046 | 0.0943 ± 0.0074 | 0.0457 ± 0.0071 | 0.039 ± 0.003 |
| SG32 HEADNECK | 1.12 ± 0.29 | 1.13 ± 0.1 | 1.14 ± 0.091 | 1.12 ± 0.14 | 0.881 ± 0.065 | 0.774 ± 0.19 | 0.273 ± 0.099 | 0.222 ± 0.087 | 1.22 ± 0.12 | 1.07 ± 0.18 | 0.32 ± 0.017 | 0.296 ± 0.022 | 0.292 ± 0.0097 | 0.294 ± 0.043 | 0.204 ± 0.014 | 0.16 ± 0.02 |
